Our source for the Emax values is article PMC3711119 (European journal of medicinal chemistry, 2013).

The subject of the assay is human neutrophils. Kind of assay: Ca2+ mobilization. Format: cell-based. The settings on record: Neutrophil, read-out: Ca2+ flux Efficacy.

On to `COc1cccc(Cc2ccnn(CC(=O)Nc3ccc(Br)cc3)c2=O)c1` [Compound 6a, N-(4-Bromophenyl)-2-[5-(3-methoxybenzyl)-6-oxopyridazin-1(6H)-yl]acetamide], for which the Emax was 100%. For `Cc1cc(N)c(=O)n(CC(=O)Nc2ccc(Br)cc2)n1` [Compound 27, N-(4-Bromophenyl)-2-[5-amino-3-methyl-6-oxopyridazin-1(6H)-yl]acetamide], the Emax came out at 100%.
